# Experimental data: patent US20150105252A1, “SUBSTITUTED PYRAZOLES AS HERBICIDES” (E I DU PONT DE NEMOURS AND COMPANY, priority 2013, published 2015)
# Legend:
# morningglory [1] = experiment: Test C postemergence; assay type: in vivo, Ipomoea coccinea
# Summary of the method: (§1)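 Herbicidal effect is expressed as percent visual control (0–100) judged against untreated plants 13 to 15 days after treatment in the greenhouse. Preemergence pots contained seeds in a soil–sand blend; postemergence plants, 2–18 cm tall, grew in peat-based planting medium.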
# foxtail, giant [2] = experiment: Test C postemergence; assay type: in vivo, Setaria faberii
# Summary of the method: as §1
# ryegrass, Italian = experiment: Test C preemergence; assay type: in vivo, Lolium multiflorum; conditions: preemergence
# Summary of the method: as §1
# corn [3] = experiment: Test C preemergence; assay type: in vivo, Zea mays; conditions: preemergence
# Summary of the method: as §1
# wheat = experiment: Test A preemergence; assay type: in vivo, Triticum aestivum; conditions: preemergence
# Summary of the method: (§2)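 Injury readout: eye-scored versus untreated controls, 0 to 100. Exposure period: ~10 days, greenhouse. Application: soil-directed spray over sown seed (pre) or spray on seedlings 2–10 cm tall with one or two leaves (post), compound carried in non-phytotoxic solvent including surfactant.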
# foxtail, giant [4] = experiment: Test A postemergence; assay type: in vivo, Setaria faberii
# Summary of the method: as §2
# galium [5] = experiment: Test C preemergence; assay type: in vivo, Galium aparine; conditions: preemergence
# Summary of the method: as §1
# waterhemp = experiment: Test C preemergence; assay type: in vivo, Amaranthus rudis; conditions: preemergence
# Summary of the method: as §1
# barnyardgrass = experiment: Test C postemergence; assay type: in vivo, Echinochloa crus-galli
# Summary of the method: as §1
# crabgrass, large [6] = experiment: Test A preemergence; assay type: in vivo, Digitaria sanguinalis; conditions: preemergence
# Summary of the method: as §2
# nutsedge, yellow = experiment: Test C preemergence; assay type: in vivo, Cyperus esculentus; conditions: preemergence
# Summary of the method: as §1
# morningglory [7] = experiment: Test A postemergence; assay type: in vivo, Ipomoea spp.; conditions: Postemergence
# Summary of the method: as §2
# crabgrass, large [8] = experiment: Test A postemergence; assay type: in vivo, Digitaria sanguinalis
# Summary of the method: as §2
# corn [9] = experiment: Test A postemergence; assay type: in vivo, Zea mays
# Summary of the method: as §2
# blackgrass = experiment: Test C postemergence; assay type: in vivo, Alopecurus myosuroides
# Summary of the method: as §1
# galium [10] = experiment: Test C postemergence; assay type: in vivo, Galium aparine
# Summary of the method: as §1
# [11] = Postemergence, 31 g ai/ha, visually evaluated after 13 to 15 days
# [12] = postemergence, 62 g ai/ha, scale 0 to 100
# [13] = postemergence, 250 g ai/ha, scale 0 to 100 (0 no effect, 100 complete control)
# [14] = postemergence, 125 g ai/ha, scale 0 to 100, 0 no effect, 100 complete control
# [15] = 31 g ai/ha, visual rating, scale 0 to 100 (0 no effect, 100 complete control), 13 to 15 days
# [16] = 62 g ai/ha, scale 0 to 100 (0 no effect, 100 complete control), 13 to 15 days
# [17] = 125 g ai/ha, 13 to 15 days, scale 0 to 100, 0 = no effect, 100 = complete control
# [18] = 250 g ai/ha, scale 0 to 100, 0 is no effect, 100 is complete control
# [19] = 125 g ai/ha, visual injury approx. 10 days after treatment
# [20] = 500 g ai/ha, visual injury after approx. 10 days, 0 to 100 scale (0 no effect, 100 complete control)
# [21] = Postemergence, 500 g ai/ha, 0 to 100 scale (0 no effect, 100 complete control)
# [22] = postemergence, 125 g ai/ha, about 10 days, visual rating on 0 to 100 scale (0 no effect, 100 complete control)
smiles,measurement,setting,value
CCCNC(=O)c1cc(OCC)n(Cc2ccnc(C(F)(F)F)c2)n1 [Compound 187],"Plant response rating (scale of 0 to 100 where 0 is no effect and 100 is complete control), Morningglory",morningglory [1]; [11],70
same,Morningglory plant response rating,morningglory [1]; [12],85
same,"Plant response rating, Morningglory",morningglory [1]; [13],98
same,"Plant response rating, Morningglory",morningglory [1]; [14],80
same,"Plant response rating (scale of 0 to 100 where 0 is no effect and 100 is complete control), Foxtail, Giant","foxtail, giant [2]; [11]",5
same,"Foxtail, Giant plant response rating","foxtail, giant [2]; [12]",10
same,"Plant response rating, Foxtail, Giant","foxtail, giant [2]; [13]",70
same,"Plant response rating, Foxtail, Giant","foxtail, giant [2]; [14]",45
same,"Ryegrass, Italian plant response rating","ryegrass, Italian; [15]",50
same,"Ryegrass, Italian plant response rating","ryegrass, Italian; [16]",80
same,"Plant response rating, Ryegrass, Italian","ryegrass, Italian; [17]",90
same,"Ryegrass, Italian plant response rating","ryegrass, Italian; [18]",90
same,Corn plant response rating,corn [3]; [15],20
same,Corn plant response rating,corn [3]; [16],85
same,"Plant response rating, Corn",corn [3]; [17],95
same,Corn plant response rating,corn [3]; [18],98
same,Wheat plant response rating (0 to 100 scale),wheat; [19],80
same,Wheat plant response rating,wheat; [20],100
same,"Foxtail, Giant plant response rating","foxtail, giant [4]; [21]",90
same,"Foxtail, Giant plant response rating","foxtail, giant [4]; [22]",90
same,Galium plant response rating,galium [5]; [15],90
same,Galium plant response rating,galium [5]; [16],95
same,"Plant response rating, Galium",galium [5]; [17],95
same,Galium plant response rating,galium [5]; [18],98
same,Waterhemp plant response rating,waterhemp; [15],100
same,Waterhemp plant response rating,waterhemp; [16],100
same,"Plant response rating, Waterhemp",waterhemp; [17],100
same,Waterhemp plant response rating,waterhemp; [18],100
same,"Plant response rating (scale of 0 to 100 where 0 is no effect and 100 is complete control), Barnyardgrass",barnyardgrass; [11],5
same,Barnyardgrass plant response rating,barnyardgrass; [12],10
same,"Plant response rating, Barnyardgrass",barnyardgrass; [13],60
same,"Plant response rating, Barnyardgrass",barnyardgrass; [14],15
same,"Crabgrass, Large plant response rating (0 to 100 scale)","crabgrass, large [6]; [19]",100
same,"Crabgrass, Large plant response rating","crabgrass, large [6]; [20]",100
same,"Nutsedge, Yellow plant response rating","nutsedge, yellow; [15]",25
same,"Nutsedge, Yellow plant response rating","nutsedge, yellow; [16]",60
same,"Plant response rating, Nutsedge, Yellow","nutsedge, yellow; [17]",85
same,"Nutsedge, Yellow plant response rating","nutsedge, yellow; [18]",98
same,Morningglory plant response rating,"morningglory [7]; 125 g ai/ha, 0 to 100 scale, 0 no effect, 100 complete control",40
same,Morningglory plant response rating,"morningglory [7]; 500 g ai/ha, 0 to 100 scale (0 no effect, 100 complete control)",100
same,"Crabgrass, Large plant response rating","crabgrass, large [8]; [21]",90
same,"Crabgrass, Large plant response rating","crabgrass, large [8]; [22]",90
same,Corn plant response rating,corn [9]; [21],100
same,Corn plant response rating,corn [9]; [22],80
same,"Plant response rating (scale of 0 to 100 where 0 is no effect and 100 is complete control), Blackgrass",blackgrass; [11],10
same,Blackgrass plant response rating,blackgrass; [12],5
same,"Plant response rating, Blackgrass",blackgrass; [13],80
same,"Plant response rating, Blackgrass",blackgrass; [14],30
same,"Plant response rating (scale of 0 to 100 where 0 is no effect and 100 is complete control), Galium",galium [10]; [11],60
same,Galium plant response rating,galium [10]; [12],80
same,"Plant response rating, Galium",galium [10]; [13],90
same,"Plant response rating, Galium",galium [10]; [14],85
